How the values were obtained:
[1] = system: serum active GLP-1; test: Serum active GLP-1 in NASH mouse models (STZ-induced, MCD-induced); assay type: in vivo, mice; settings: FIG. 6A-6B
Protocol: FIG. 6A. Graph illustrating the serum active GLP-1 levels in NCD-mice (“Chow”) and RFD-fed, STZ-induced NASH mice that were treated with vehicle, A3334, A3051, selonsertib, and ocaliva.
FIG. 6B. Graph illustrating the serum active GLP-1 levels in NCD-mice (“Chow”) and RFD-fed, methionine-choline deficient diet (MCD)-induced NASH mice that were treated with vehicle, A3334, A3051, selonsertib, ocaliva (“OCA”), and A3486.
Blood chemistry. Total blood of mice was collected by cardiac puncture. The blood was allowed to clot for 30 min and was then centrifuged for 30 min at 3,000×g to obtain supernatant to measure active GLP-1 concentration. ELISA assay kits were used to assess serum active GLP-1 (7-36).

[2] = system: rat neuronal stem cells (NSCs); test: Neural stem cell (NSC) differentiation, cell morphology; assay type: cell-based; settings: 0, 1, 5 and 10 μM; 24 hours; medium with bFGF
Protocol: Neural stem cell (NSCs) culture. NSCs were extracted from the forebrain of E14.5 rats and maintained in an undifferentiated state by culturing in medium containing 10 ng/ml of bFGF (Peprotech). Undifferentiated NSCs (1×10^5) were treated with of each compound (10 μM) and cell morphology was assessed by capturing black and white images of the cells after 24 h.
Referring now to FIG. 7A-7B, NSCs were isolated form E14 mice embryos, and maintained in the maintenance medium (supplemented) with bFGF and EGF. The neuronal differentiation was induced by treating different concentrations of A3051. Cell morphologies were captured at 24 hours after treatment of the indirubin analog 3051 using a bright-field optical microscope.

[3] = system: β-catenin, CXXC5 and p-GSK3β (S9) in H4/SWE cells; test: Western blot assay in H4/SWE cells; assay type: cell-based; settings: FIG. 9A
Protocol: Western blot assay. H4 and H4/SWE Cells were ground with a mortar and pestle before lysis in RIPA buffer (150 mM NaCl, 10 mM Tris, pH 7.2, 0.1% SDS, 1.0% Triton X-100, 1% sodium deoxycholate, and 5 mM EDTA). Samples were separated on 6-12% SDS polyacrylamide gels and transferred onto PROTRAN nitrocellulose membranes (Schleicher and Schuell Co.). The membranes were blocked with PBS containing 5% non-fat dry skim milk and 0.07% (vol/vol) Tween 20 and incubated with antibody specific for β-catenin (1:1,000, Santa Cruz Biotechnology, Inc.), CXXC5 (1:500, Santa Cruz Biotechnology, Inc.), p-GSK3β(S9) (1:500, Santa Cruz Biotechnology, Inc.). The membranes were then incubated with horseradish peroxidase-conjugated anti-rabbit (1:5,000, Bio-Rad Laboratories) or anti-mouse (1:5000, Cell Signaling Technology) IgG secondary antibody. Protein bands were visualized with enhanced chemiluminescence (GE Healthcare) using a luminescent image analyzer, LAS-3000 (Fujifilm). Western blot bands were analyzed using Multi-Gauge V3.0 software (Fujifilm).

[4] = system: β-catenin in H4/SWE cells; test: Immunocytochemical analysis of β-catenin in H4/SWE cells; assay type: cell-based; settings: FIG. 9B
Protocol: Immunocytochemical analysis. H4 or H4/SWE cells treated with each compound were washed with PBS and fixed in 4% (wt/vol) paraformaldehyde (PFA) in PBS for 15 min at room temperature. The cells were then washed with PBS and permeabilized with 0.1% (vol/vol) Triton X-100 in PBS for 15 min. After washing with PBS, the cells were incubated with 10% bovine serum albumin (BSA) in PBS for 30 min and then with antibodies specific for β-catenin (1:100; BD) overnight at 4° C. The cells were washed in PBS and incubated with Alexa Fluor 488—conjugated IgG secondary antibody (1:400; Molecular Probes) at room temperature for 1 h. Cell nuclei were counterstained with DAPI for 10 min and the stained samples were examined under a LSM510 META microscope.

[5] = system: secreted human amyloid β-42 in H4/SWE cells; test: Human Aβ42 ELISA assay in H4/SWE cells; assay type: cell-based; settings: 24 h, FIG. 10
Protocol: Human Aβ42 ELISA assay. H4 or H4/SWE cells were cultured in Dulbecco's Modified Eagle's Medium (DMEM, Gibco) containing 10% fetal bovine serum (FBS) and grown to confluence in a 5% CO2 and 95% air humidified atmosphere. The cells were seeded in 6-well plate in DMEM supplemented with 10% FBS and allowed to adhere overnight. The cells were treated with each compound (1˜20 uM) for 24 h and collected in 1 ml of medium. The samples were treated with protease inhibitor cocktail (PIC) to avoid the degradation of Amyloid β by protease and centrifuged at 3000 rpm for 3 min. Experiments were performed according to the guidance of Human Aβ42 ELISA Kit protocol (Invitrogen). The amount of secreted Amyloid β was normalized by measuring total protein concentration.

CO/N=C1/C(=C2/C(=O)Nc3cc(Cl)c(Cl)cc32)Nc2ccccc21 [Compound A3051, 5,6-dichloroindirubin-3′-methoxime]
active GLP-1 expression in blood serum [1]: significantly rescued (increased)
neural differentiation of NSCs (cell morphology) [2]: induced neural differentiation
level of CXXC5 (western blot) [3]: decreased
level of β-catenin (western blot) [3]: restored
p-GSK3β (S9) (western blot) [3]: increased
nuclear translocation of β-catenin [4]: increased
secretion of Aβ-42 [5]: inhibited

From patent US12303490B2, “Compositions and methods for suppressing and/or treating neurodegenerative diseases and/or a clinical condition thereof” (CK Regeon Inc., priority 2019, dated 2025)
